System: NCI-H196 complex spheroids with HUVEC/MSC, growth % T/C
Assay: Anticancer human tumor NCI-H196 cell line growth inhibition [Asc];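 further: spheroids exposed to compound for 7 days before measurement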;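 on viability, T/C: 100% = DMSO vehicle control wells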
Settings: for IC50: curve of first compound; for viability, T/C: stronger effect = lower value; active means viability on the fitted dose curve at most 10% of control; inactive means the rest
Method in brief: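 Tumor cells were grown as multicellular spheroids with stromal HUVEC and mesenchymal stem cells and treated singly or in combination. Concentrations fell in half-log steps from the clinical Cmax, or from 10 microM where none was known.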

CCN1C(C(=O)NC23CCC(C(=O)O)(CC2)CC3)C(c2cccc(Cl)c2F)C2(C(=O)Nc3cc(Cl)ccc32)C12CCCCC2 (stereo not given) + Cc1c(S(C)(=O)=O)c(-c2cc(F)cc(N3CCN(c4ccc(NS(=O)(=O)c5ccc(NC(CCN6CCC(C(=O)OCCCP(=O)(O)O)CC6)CSc6ccccc6)c(S(=O)(=O)C(F)(F)F)c5)cc4)CC3)c2)c(-c2ccc(Cl)cc2)n1C(C)C
inactive: viability, T/C (second compound 0.1 µM, first compound 0.00949 µM) 89.3% | viability, T/C (second compound 0.1 µM, first compound 0.03 µM) 104% | viability, T/C (second compound 0.1 µM, first compound 0.0949 µM) 91.2% | viability, T/C (second compound 0.1 µM, first compound 0.3 µM) 91.5% | viability, T/C (second compound 0.1 µM, first compound 0.949 µM) 92.2% | viability, T/C (second compound 0.1 µM, first compound 3 µM) 86.4% | viability, T/C (second compound 0.316 µM, first compound 0.00949 µM) 89.6% | viability, T/C (second compound 0.316 µM, first compound 0.03 µM) 89.7% | viability, T/C (second compound 0.316 µM, first compound 0.0949 µM) 95.5% | viability, T/C (second compound 0.316 µM, first compound 0.3 µM) 85.3% | viability, T/C (second compound 0.316 µM, first compound 0.949 µM) 88.3% | viability, T/C (second compound 0.316 µM, first compound 3 µM) 69.4% | viability, T/C (second compound 1 µM, first compound 0.00949 µM) 84.3% | viability, T/C (second compound 1 µM, first compound 0.03 µM) 83% | viability, T/C (second compound 1 µM, first compound 0.0949 µM) 87.5% | viability, T/C (second compound 1 µM, first compound 0.3 µM) 80.8% | viability, T/C (second compound 1 µM, first compound 0.949 µM) 78.9% | viability, T/C (second compound 1 µM, first compound 3 µM) 62.6% | viability, T/C (second compound 3.16 µM, first compound 0.00949 µM) 77.9% | viability, T/C (second compound 3.16 µM, first compound 0.03 µM) 82.5% | viability, T/C (second compound 3.16 µM, first compound 0.0949 µM) 72.5% | viability, T/C (second compound 3.16 µM, first compound 0.3 µM) 72.3% | viability, T/C (second compound 3.16 µM, first compound 0.949 µM) 66.2% | viability, T/C (second compound 3.16 µM, first compound 3 µM) 48.7% | viability, T/C (second compound 10 µM, first compound 0.00949 µM) 70.2% | viability, T/C (second compound 10 µM, first compound 0.03 µM) 79.1% | viability, T/C (second compound 10 µM, first compound 0.0949 µM) 70.1% | viability, T/C (second compound 10 µM, first compound 0.3 µM) 73.2% | viability, T/C (second compound 10 µM, first compound 0.949 µM) 59% | viability, T/C (second compound 10 µM, first compound 3 µM) 38.6%
> 3 µM: IC50 (second compound 0.1 µM) | IC50 (second compound 0.316 µM) | IC50 (second compound 1 µM)
1.66 µM: IC50 (second compound 10 µM)
2.85 µM: IC50 (second compound 3.16 µM)

COc1c(OCCCN2CCOCC2)ccc2c3n(c(=NC(=O)c4cnc(N)nc4)nc12)CCN3 + Cc1c(S(C)(=O)=O)c(-c2cc(F)cc(N3CCN(c4ccc(NS(=O)(=O)c5ccc(NC(CCN6CCC(C(=O)OCCCP(=O)(O)O)CC6)CSc6ccccc6)c(S(=O)(=O)C(F)(F)F)c5)cc4)CC3)c2)c(-c2ccc(Cl)cc2)n1C(C)C
0.286 µM: IC50 (second compound 1 µM)
> 1 µM: IC50 (second compound 0.1 µM) | IC50 (second compound 0.316 µM)
inactive: viability, T/C (second compound 0.1 µM, first compound 0.00316 µM) 96.6% | viability, T/C (second compound 0.1 µM, first compound 0.01 µM) 88.3% | viability, T/C (second compound 0.1 µM, first compound 0.0316 µM) 76.4% | viability, T/C (second compound 0.1 µM, first compound 0.1 µM) 77.5% | viability, T/C (second compound 0.1 µM, first compound 0.316 µM) 59.7% | viability, T/C (second compound 0.1 µM, first compound 1 µM) 50.8% | viability, T/C (second compound 0.316 µM, first compound 0.00316 µM) 90.6% | viability, T/C (second compound 0.316 µM, first compound 0.01 µM) 86.8% | viability, T/C (second compound 0.316 µM, first compound 0.0316 µM) 82.3% | viability, T/C (second compound 0.316 µM, first compound 0.1 µM) 62.7% | viability, T/C (second compound 0.316 µM, first compound 0.316 µM) 57.9% | viability, T/C (second compound 0.316 µM, first compound 1 µM) 50.7% | viability, T/C (second compound 1 µM, first compound 0.00316 µM) 88.8% | viability, T/C (second compound 1 µM, first compound 0.01 µM) 86.5% | viability, T/C (second compound 1 µM, first compound 0.0316 µM) 74.6% | viability, T/C (second compound 1 µM, first compound 0.1 µM) 60.5% | viability, T/C (second compound 1 µM, first compound 0.316 µM) 49.3% | viability, T/C (second compound 1 µM, first compound 1 µM) 43.9% | viability, T/C (second compound 3.16 µM, first compound 0.00316 µM) 80% | viability, T/C (second compound 3.16 µM, first compound 0.01 µM) 88.7% | viability, T/C (second compound 3.16 µM, first compound 0.0316 µM) 72.3% | viability, T/C (second compound 3.16 µM, first compound 0.1 µM) 62.8% | viability, T/C (second compound 3.16 µM, first compound 0.316 µM) 44.8% | viability, T/C (second compound 3.16 µM, first compound 1 µM) 37.4% | viability, T/C (second compound 10 µM, first compound 0.00316 µM) 74.2% | viability, T/C (second compound 10 µM, first compound 0.01 µM) 80.1% | viability, T/C (second compound 10 µM, first compound 0.0316 µM) 65.7% | viability, T/C (second compound 10 µM, first compound 0.1 µM) 52.6% | viability, T/C (second compound 10 µM, first compound 0.316 µM) 41.5% | viability, T/C (second compound 10 µM, first compound 1 µM) 32.3%
0.132 µM: IC50 (second compound 10 µM)
0.225 µM: IC50 (second compound 3.16 µM)

From PubChem BioAssay AID1963439 (Molecular Pharmacology Branch, DTP, NCI, 2024)
